Assay results taken from PubChem BioAssay AID742 (SRMLSC, 2007).
The source made the active and inactive calls. The rule behind the calls is not given here.

Assays:
[1] = Her2 expression suppression with viability readout – cell-based, AlphaScreen, CellTiter-Glo viability, dose response (AID 742); conditions: human cells, Her2 expression AlphaScreen; CTG viability; at 9.62 µM (top of the series)
[2] = tested on: human cells, Her2 expression AlphaScreen; CTG viability; experiment: as above; conditions: for EC50: viability, CellTiter-Glo

## O=C(NCc1cccs1)c1nc2c(nnn2Cc2ccccc2Cl)c(=O)[nH]1
[1]
  Her2 inhibition: 45.2% (inactive)
[2]
  EC50: > 9.62 µM

## Cc1ccc(NC(=O)CNc2cccc(C)c2C)c(C)c1
[1]
  Her2 inhibition: -12.6% (inactive)
[2]
  EC50: > 9.62 µM

## CC(C)c1nnc(NC(=O)CCS(=O)(=O)c2nc(-c3cccs3)cc(C(F)(F)F)n2)s1
[1]
  Her2 inhibition: 16.2% (inactive)
[2]
  EC50: > 9.62 µM

## CCOc1ccc(-c2[nH]ncc2Oc2ccccc2OCC)c(O)c1
[1]
  Her2 inhibition: 1.97% (inactive)
[2]
  EC50: > 9.62 µM

## Cc1ccc(C(CC(=O)c2ccco2)SCCO)cc1 (stereo unspecified)
[1]
  Her2 inhibition: 10.4% (inactive)
[2]
  EC50: > 9.62 µM

## O=C(CN1CCC(c2nc3ccccc3s2)CC1)NCc1cccs1
[1]
  Her2 inhibition: -41.9% (inactive)
[2]
  EC50: > 9.62 µM

## O=C(NCCCc1ccccc1)c1ccncc1
[1]
  Her2 inhibition: -8.4% (inactive)
[2]
  EC50: > 9.62 µM

## O=C(CCN1CCC(c2ccccc2)C1)c1cccs1 (stereo unspecified)
[1]
  Her2 inhibition: -8.45% (inactive)
[2]
  EC50: > 9.62 µM

## COC(=O)CSc1cc(SCC(=O)OC)c(C#N)c(SCC(=O)OC)c1
[1]
  Her2 inhibition: 6.74% (inactive)
[2]
  EC50: > 9.62 µM

## CCc1nc(N)c(C#N)c(-c2cccnc2)c1C
[1]
  Her2 inhibition: 2.53% (inactive)
[2]
  EC50: > 9.62 µM

## CCc1ccc2oc(-c3cc(N=Cc4cccc(OC)c4O)ccc3O)nc2c1
[1]
  Her2 inhibition: 20.2% (inactive)
[2]
  EC50: > 9.62 µM

## O=C(Nc1ccc(Cl)cc1)Nc1ccc2c(c1)N1CCN=C1S2
[1]
  Her2 inhibition: -7.78% (inactive)
[2]
  EC50: > 9.62 µM

## Cc1ccc(CNC(=O)c2cc3c(-c4ccc(Cl)cc4)nn(C)c3s2)o1
[2]
  IC50: 6.48 µM
  EC50: > 9.62 µM

## Cn1c(C(C#N)C(=O)c2ccco2)nc2ccccc21 (stereo unspecified)
[2]
  IC50: 2.25 µM
  EC50: > 9.62 µM

## CC(=O)Nc1cc(OC(C)=O)c2nonc2c1OC(C)=O
[1]
  Her2 inhibition: 22.3% (inactive)
[2]
  EC50: > 9.62 µM

## COc1ccc(OCC(=O)NCc2cccnc2)cc1
[1]
  Her2 inhibition: -22.7% (inactive)
[2]
  EC50: > 9.62 µM

## O=S1(=O)C=C(Sc2nc3cc(Cl)ccc3o2)c2ccccc21
[2]
  IC50: 9.25 µM
  EC50: > 9.62 µM

## O=C(NCc1ccco1)C(Cc1ccccc1)N1C(=O)c2ccccc2C1=O (stereo unspecified)
[1]
  Her2 inhibition: -6.2% (inactive)
[2]
  EC50: > 9.62 µM

## OCCN1CCN(CCCN2c3ccccc3Sc3ccc(C(F)(F)F)cc32)CC1
[1]
  Her2 inhibition: 12.6% (inactive)
[2]
  EC50: > 9.62 µM

## O=C(O)c1ccc2c3c(ncnc13)-c1ccccc1C2=O
[1]
  Her2 inhibition: -3.54% (inactive)
[2]
  EC50: > 9.62 µM

## CCOC(=O)CSc1nnc(-c2ccc(NS(=O)(=O)c3ccc(C)cc3)cc2)o1
[1]
  Her2 inhibition: 7.81% (inactive)
[2]
  EC50: > 9.62 µM

## N=c1n(CCO)c2ccccc2n1CCOc1ccc(Cl)cc1Cl
[1]
  Her2 inhibition: -2.09% (inactive)
[2]
  EC50: > 9.62 µM

## N#CC1=C2SCN(c3ccccc3)CN2C(=O)CC1c1cccs1 (stereo unspecified)
[1]
  Her2 inhibition: -27.6% (inactive)
[2]
  EC50: > 9.62 µM

## Cc1cc(-c2ccccc2)nc(=O)[nH]1
[1]
  Her2 inhibition: -18.4% (inactive)
[2]
  EC50: > 9.62 µM

## Cc1nn2c(-c3ccco3)nnc2c2ccccc12
[2]
  IC50: 2.38 µM
  EC50: > 9.62 µM

## Clc1ccc(COC(Cn2ccnc2)c2ccc(Cl)cc2Cl)c(Cl)c1 (stereo unspecified)
[1]
  Her2 inhibition: -0.43% (inactive)
[2]
  EC50: > 9.62 µM

## Cc1ccc(S(=O)(=O)Nc2cccc3ncccc23)s1
[1]
  Her2 inhibition: 14.8% (inactive)
[2]
  EC50: > 9.62 µM

## C=C(C)COc1ccc(-c2n[nH]c(C)c2Oc2ccccc2OC)c(O)c1
[1]
  Her2 inhibition: -8.71% (inactive)
[2]
  EC50: > 9.62 µM

## COCCn1c(Cc2ccccc2)nnc1SCC(=O)N(C)C
[1]
  Her2 inhibition: 6.46% (inactive)
[2]
  EC50: > 9.62 µM

## CCn1c(=O)c(C(=O)Nc2nc3ccccc3[nH]2)c(O)c2ccccc21
[1]
  Her2 inhibition: 41.2% (inactive)
[2]
  EC50: > 9.62 µM

## Cc1c(NC(=O)c2coc(=O)c(Br)c2)c(=O)n(-c2ccccc2)n1C
[1]
  Her2 inhibition: 7.39% (inactive)
[2]
  EC50: > 9.62 µM

## Clc1ccc(-n2nnnc2Sc2ncnc3sccc23)cc1
[1]
  Her2 inhibition: -1.39% (inactive)
[2]
  EC50: > 9.62 µM

## C[C@@]1(CO)[C@H](O)CC[C@@]2(C)[C@H]1CC[C@H]1C[C@@H]3C[C@@]12CC[C@]3(O)CO
[1]
  Her2 inhibition: 1.16% (inactive)
[2]
  EC50: > 9.62 µM

## CCOC(=O)C1C(c2ccccc2Cl)NC(=O)N(C)C1(O)C(F)(F)F (stereo unspecified)
[1]
  Her2 inhibition: -10.7% (inactive)
[2]
  EC50: > 9.62 µM

## Clc1cccc(-c2nnc(-c3ccccc3)o2)c1
[1]
  Her2 inhibition: 34.8% (inactive)
[2]
  EC50: < 0.024 µM

## N#CCCS(=O)(=O)c1nnnn1-c1ccccc1
[1]
  Her2 inhibition: 3.51% (inactive)
[2]
  EC50: > 9.62 µM

## Cc1ccccc1OCCCC(=O)Nc1nccs1
[1]
  Her2 inhibition: -6.38% (inactive)
[2]
  EC50: > 9.62 µM

## OC(CCN1CCCC1)(c1ccccc1)C1CCCCC1 (stereo unspecified)
[1]
  Her2 inhibition: -24.9% (inactive)
[2]
  EC50: > 9.62 µM

## COc1ccc(/C=C/C(O)=C2/C(=O)N(C)C3(C)CC2c2ccccc2O3)cc1 (stereo unspecified)
[1]
  Her2 inhibition: 23.7% (inactive)
[2]
  EC50: > 9.62 µM

## CS(=O)(=O)c1nc(-c2ccccc2)cc(C(F)(F)F)n1
[2]
  IC50: 9.06 µM
  EC50: > 9.62 µM

## COC(=O)c1sccc1NC(=O)c1ccc(Cl)s1
[2]
  IC50: 9 µM
  EC50: > 9.62 µM

## CCCn1c(NC(=O)c2ccco2)nc2ccccc21
[2]
  IC50: 2.13 µM
  EC50: > 9.62 µM

## Cc1nc(NC(=O)c2ccco2)sc1C(=O)Nc1ccc(Br)cc1
[2]
  IC50: 1.49 µM
  EC50: > 9.62 µM

## COC(=O)/C(=C1/Oc2cc(C)oc(=O)c2S1)C(F)(F)F
[2]
  IC50: 3.78 µM (inactive)
  EC50: < 0.024 µM

## CC(=O)c1sc2nc(-c3cccs3)cc(C(F)(F)F)c2c1N
[2]
  IC50: 9.32 µM
  EC50: > 9.62 µM

## CCn1nc(-c2cccs2)nc2c(=O)n(C)c(=O)nc1-2
[2]
  IC50: 2.55 µM (inactive)
  EC50: < 0.024 µM

## Nc1nnnn1/N=C/C(Br)=C/c1ccccc1
[2]
  IC50: 3.58 µM
  EC50: > 9.62 µM

## Cc1nc2nc(-c3ccco3)nn2c(C)c1Cl
[2]
  IC50: 2.6 µM
  EC50: > 9.62 µM

## CCCCS(=O)(=O)/C=C\C=C/S(=O)(=O)CCCC
[2]
  IC50: 4.07 µM
  EC50: > 9.62 µM

## Cc1ccc(-c2csc3ncnc(Sc4nnc(CN5CCCCCC5=O)o4)c23)cc1
[2]
  IC50: 4.53 µM
  EC50: > 9.62 µM

## O=C(CSc1nc2cc(Cl)ccc2s1)c1ccco1
[2]
  IC50: 5.09 µM
  EC50: > 9.62 µM

## CN(C)CC(C(=O)c1ccccc1)c1ccccc1 (stereo unspecified)
[2]
  IC50: 8.84 µM
  EC50: > 9.62 µM

## COc1ccc(C(=O)C(CN2CCCC2)c2ccccc2)cc1 (stereo unspecified)
[2]
  IC50: 8.95 µM
  EC50: > 9.62 µM

## O=S(=O)(CC(CN1CCCC1)N1CCCC1)c1ccc2ccccc2c1 (stereo unspecified)
[2]
  IC50: 7.29 µM
  EC50: > 9.62 µM

## Cn1ncnc2c(=O)n(C)c(=O)nc1-2
[2]
  IC50: 2.24 µM (inactive)
  EC50: < 0.024 µM

## O=S1(=O)C=C(Sc2nc3ccccc3s2)c2ccccc21
[2]
  IC50: 5.63 µM
  EC50: > 9.62 µM

## O=S(=O)(C/C(=C/CO)S(=O)(=O)c1ccccc1)c1ccccc1
[2]
  IC50: 5.12 µM
  EC50: > 9.62 µM

## CSC1=N/C(=C\C=C\c2cccs2)C(=O)S1
[2]
  IC50: 8.09 µM
  EC50: > 9.62 µM

## O=S1(=O)C=C(Sc2nnc(-c3ccccc3)o2)c2ccccc21
[2]
  IC50: 7.54 µM
  EC50: > 9.62 µM

## CCN1/C(=C/C(=O)c2ccco2)Sc2ccccc21
[2]
  IC50: 3.63 µM
  EC50: > 9.62 µM

## CS(=O)(=O)c1nc(-c2cccs2)cc(C(F)(F)F)n1
[2]
  IC50: 7.37 µM
  EC50: > 9.62 µM

## CS(=O)(=O)c1nc(-c2ccco2)cc(C(F)(F)F)n1
[2]
  IC50: 9.15 µM
  EC50: > 9.62 µM

## CCn1nc(-c2ccccc2)nc2c(=O)n(C)c(=O)nc1-2
[2]
  IC50: 4.48 µM (inactive)
  EC50: < 0.024 µM
